SMILES strings stand for the structures. Activity calls are given as the source filed them. No cut-off for these calls is given here.

Data set [1] deals with Mus musculus. The data set can be described thus: Antiresorptive activity in ICR mouse assessed as reduction of LPS-induced trabecular bone loss at 2 to 4 mg/kg, ip administered for 8 days with LPS challenge on day 2 and 5 measured on day 9 by hematoxylin and eosin staining. The class given is functional, organism-based. As to conditions: Trabecula.
For data set [2], the target named is Calmodulin (Bos taurus) (UniProt P62157). The data set is described as follows: Binding affinity to bovine brain calmodulin at 0.1 mM after 60 mins by gel mobility shift assay in presence of CaCl2.
Data set [3] addresses Calmodulin-1 (Homo sapiens) (UniProt P0DP23). The data set is described as follows: Binding affinity to recombinant human calmodulin assessed as inhibition of calcineurin phosphatase activity using R2 phosphopeptide substrate at 3 to 10 uM after 30 mins by malachite green staining-based colorimetric analysis in presence of CaCl2.
Data set [4] has as its target Calmodulin-1 (Mus musculus) (UniProt P0DP26). The data set is described as follows: Binding affinity to Ca2+/calmodulin complex in preosteoclast derived from ICR mouse bone marrow-derived macrophages assessed as inhibition of RANKL-induced NFATc1 mRNA expression at 10 uM preincubated for 30 mins with M-CSF followed by RANKL induction measured after 3 hrs by real-time PCR analysis.

Data set [5] addresses T1, Tumor necrosis factor ligand superfamily member 11 (Mus musculus) (UniProt O35235).
T1 sequence (whole entry): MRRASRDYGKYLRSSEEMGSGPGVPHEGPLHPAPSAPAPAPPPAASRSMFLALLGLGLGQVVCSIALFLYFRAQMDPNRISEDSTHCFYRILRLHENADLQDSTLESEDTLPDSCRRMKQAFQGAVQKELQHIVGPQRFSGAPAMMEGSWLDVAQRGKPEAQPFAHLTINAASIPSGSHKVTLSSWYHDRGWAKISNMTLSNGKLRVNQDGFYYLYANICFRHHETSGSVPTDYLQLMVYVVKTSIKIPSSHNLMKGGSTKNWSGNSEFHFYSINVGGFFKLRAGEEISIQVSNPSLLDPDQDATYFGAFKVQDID
The data set can be described thus: Inhibition of RANKL-induced fusion of preosteoclast derived from ICR mouse bone marrow-derived macrophages assessed as formation of tartrate-resistant acid phosphatase-positive multinucleated osteoclast preincubated for 30 mins with M-CSF followed by RANKL induction measured after 1 day by TRAP staining. The class given is functional, cell-based.

For data set [6], the target named is Calmodulin-1 (Mus musculus) (UniProt P0DP26). The data set is described as follows: Binding affinity to Ca2+/calmodulin complex in preosteoclast derived from ICR mouse bone marrow-derived macrophages assessed as inhibition of RANKL-induced DC-STAMP mRNA expression at 10 uM preincubated for 30 mins with M-CSF followed by RANKL induction measured after 3 hrs by real-time PCR analysis.

Data set [7] has the same target. The data set is described as follows: Binding affinity to Ca2+/calmodulin complex in preosteoclast derived from ICR mouse bone marrow-derived macrophages assessed as inhibition of RANKL-induced ATP6v0d2 mRNA expression at 10 uM preincubated for 30 mins with M-CSF followed by RANKL induction measured after 3 hrs by real-time PCR analysis.
The nature of data set [8]: Cytotoxicity against preosteoclast derived from ICR mouse bone marrow-derived macrophages assessed as cell viability at 0.1 to 10 uM after 1 day by CCK-8 assay. In kind it is cell-based. To be noted: osteoclast, 24 h.
The target of data set [9] is Calmodulin-1 (Mus musculus) (UniProt P0DP26). The data set can be described thus: Binding affinity to Ca2+/calmodulin complex in preosteoclast derived from ICR mouse bone marrow-derived macrophages assessed as inhibition of RANKL-induced cathepsin K mRNA expression at 10 uM preincubated for 30 mins with M-CSF followed by RANKL induction measured after 3 hrs by real-time PCR analysis.

For data set [10] the target is unchanged. The data set can be described thus: Binding affinity to Ca2+/calmodulin complex in preosteoclast derived from ICR mouse bone marrow-derived macrophages assessed as inhibition of RANKL-induced alphaV-integrin mRNA expression at 10 uM preincubated for 30 mins with M-CSF followed by RANKL induction measured after 3 hrs by real-time PCR analysis.
In data set [11] the test system is Mus musculus. The data set is described as follows: Antiresorptive activity in ICR mouse assessed as inhibition of LPS-induced changes in trabecular thickness at 2 to 4 mg/kg, ip administered for 8 days with LPS challenge on day 2 and 5 measured on day 9 by histomorphometric analysis. The class given is functional, organism-based. To be noted: Trabecula.
In data set [12] the target is T1, Tumor necrosis factor ligand superfamily member 11 (Mus musculus). The data set is described as follows: Inhibition of RANKL-induced migration of preosteoclast derived from ICR mouse bone marrow-derived macrophages after 8 hrs by Boyden chamber assay. To be noted: Osteoclast. In kind it is functional, cell-based.
Data set [13] addresses Calmodulin-1 (Mus musculus) (UniProt P0DP26). The data set is described as follows: Binding affinity to Ca2+/calmodulin complex in preosteoclast derived from ICR mouse bone marrow-derived macrophages assessed as inhibition of RANKL-induced NFATc1 nuclear translocation at 10 uM preincubated for 30 mins with M-CSF followed by RANKL induction measured after 3 to 7 hrs by Western blot analysis.

The test system of data set [14] is Mus musculus. The data set can be described thus: Antiresorptive activity in ICR mouse assessed as inhibition of LPS-induced changes in trabecular number at 2 to 4 mg/kg, ip administered for 8 days with LPS challenge on day 2 and 5 measured on day 9 by histomorphometric analysis. In kind it is functional, organism-based. To be noted: Trabecula.
The target of data set [15] is Calmodulin (Bos taurus) (UniProt P62157). The data set is described as follows: Binding affinity to bovine brain calmodulin at 0.1 mM after 60 mins by gel mobility shift assay in presence of EGTA.
Data set [16] addresses Calmodulin-1 (Mus musculus) (UniProt P0DP26). The data set can be described thus: Binding affinity to Ca2+/calmodulin complex in preosteoclast derived from ICR mouse bone marrow-derived macrophages assessed as inhibition of CREB phosphorylation at S133 preincubated for 30 mins with M-CSF followed by RANKL induction measured after 30 mins by Western blot analysis.
The subject of data set [17] is Mus musculus. The data set is described as follows: Antiresorptive activity in ICR mouse assessed as inhibition of LPS-induced changes in bone volume/tissue volume at 2 to 4 mg/kg, ip administered for 8 days with LPS challenge on day 2 and 5 measured on day 9 by histomorphometric analysis. The class given is functional, organism-based.
Data set [18] has as its system Mus musculus. The data set can be described thus: Antiresorptive activity in ICR mouse assessed as inhibition of LPS-induced changes in bone surface/tissue volume at 2 to 4 mg/kg, ip administered for 8 days with LPS challenge on day 2 and 5 measured on day 9 by histomorphometric analysis. The class given is functional, organism-based.
The test system of data set [19] is Mus musculus. The data set is described as follows: Antiresorptive activity in ICR mouse assessed as inhibition of LPS-induced changes in bone mineral density at 2 to 4 mg/kg, ip administered for 8 days with LPS challenge on day 2 and 5 measured on day 9 by histomorphometric analysis. The class given is functional, organism-based.
The subject of data set [20] is Mus musculus. The data set is described as follows: Antiresorptive activity in ICR mouse assessed as inhibition of LPS-induced changes in trabecular separation at 2 to 4 mg/kg, ip administered for 8 days with LPS challenge on day 2 and 5 measured on day 9 by histomorphometric analysis. As to conditions: Trabecula. In kind it is functional, organism-based.
For data set [21], the target named is Calmodulin-1 (Mus musculus) (UniProt P0DP26). The data set can be described thus: Binding affinity to Ca2+/calmodulin complex in preosteoclast derived from ICR mouse bone marrow-derived macrophages assessed as inhibition of CaMK-4 phosphorylation at T196 preincubated for 30 mins with M-CSF followed by RANKL induction measured after 30 mins by Western blot analysis.

In data set [22] the test system is Mus musculus. The data set can be described thus: Antiresorptive activity in ICR mouse assessed as inhibition of LPS-induced cancellous bone loss in distal metaphysis at 2 to 4 mg/kg, ip administered for 8 days with LPS challenge on day 2 and 5 measured on day 9 by microCT analysis. The class given is functional, organism-based.
The target in data set [23] is Calmodulin-1 (Mus musculus) (UniProt P0DP26). The data set can be described thus: Binding affinity to Ca2+/calmodulin complex in preosteoclast derived from ICR mouse bone marrow-derived macrophages assessed as inhibition of NFATc1 nuclear translocation at 0.3 to 10 uM preincubated for 30 mins with M-CSF followed by RANKL induction measured after 30 mins by Western blot analysis.

For data set [24] the target is unchanged. The data set is described as follows: Binding affinity to Ca2+/calmodulin complex in preosteoclast derived from ICR mouse bone marrow-derived macrophages assessed as inhibition of RANKL-induced c-Fos mRNA expression at 10 uM preincubated for 30 mins with M-CSF followed by RANKL induction measured after 3 hrs by real-time PCR analysis.

With `C/C=C(/C)C(=O)O[C@@H]1[C@@H](OC(C)=O)c2c(ccc3ccc(=O)oc23)OC1(C)C`, the outcome in the data set with Mus musculus [1] and on Calmodulin (Bos taurus) [2] was Active. In addition, the inhibition entry in [3], in [4], in [6], in data set [7], in data set [9] and in [10] was “Active” throughout. The inhibition entry (with Mus musculus [11]; in data set [13]; in the data set on Mus musculus [14]; with Mus musculus [17]; in the data set with Mus musculus [18]; in the data set with Mus musculus [19]) was “Active” each time. Also, the inhibition entry (in the data set with Mus musculus [20]; in the data set on Mus musculus [22]; in data set [23]; in [24]) was “Active” each time. Also, the inhibition entry in data set [5], in data set [12], in data set [16] and in [21] was “Dose-dependent effect” throughout. In [8], the Activity result is on record as “Non-toxic”. Besides, the result on Calmodulin (Bos taurus) [15] was inactive.

(Values after ChEMBL document CHEMBL3576801, “Praeruptorin A inhibits in vitro migration of preosteoclasts and in vivo bone erosion, possibly due to its potential to target calmodulin” (J Nat Prod, 2015).)
